Experimental data as given in patent US20260022142A1, “MACROCYCLIC IMMUNOMODULATORS” (Bristol-Myers Squibb Company, priority 2022, published 2026).
Bridge positions count the residues as written; N and C are the ends. Square brackets hold non-standard residues; d marks the D form. Peptide text beside a SMILES is read from it. * marks the point of attachment. ξ: configuration not given here. Phe(4-COOH) = N[C@@H](Cc1ccc(C(=O)O)cc1)C(=O)O; Bip = N[C@@H](Cc1ccc(-c2ccccc2)cc1)C(=O)O; hArg = N=C(N)NCCCC[C@H](N)C(=O)O; 4Pal = N[C@@H](Cc1ccncc1)C(=O)O; Cha = N[C@@H](CC1CCCCC1)C(=O)O; Thr(3ξ) = CC(O)[C@H](N)C(=O)O; Carboxymethyl = O=C(O)C*; Orn = NCCC[C@H](N)C(=O)O; Aun = NCCCCCCCCCCC(=O)O; Dab = NCC[C@H](N)C(=O)O; Dap = NC[C@H](N)C(=O)O; AEEA = NCCOCCOCC(=O)O

Biological target: T1, PD-1/PD-L1 interaction (PE-labeled human PD-L1-Ig binding to Jurkat cell line over-expressing human PD-1) (Homo sapiens, UniProt Q15116)
T1 construct: expressed in transfected cells; host or cells: Jurkat
Experiment: Jurkat-PD-1 Cell Binding High-Content Screening Assay (CBA)
Format: cell-based
Conditions: Jurkat cell line over-expressing human PD-1; PE-labeled PD-L1-Ig 20 nM final; read-out: Jurkat hPD1-PDL1 IC50
In short: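 First, compound is added to PD-1-expressing Jurkat cells in serum-containing DMEM and left 2 h at 37° C. Next, PE-conjugated PD-L1-Ig is introduced at 20 nM final concentration for 1 hour. Finally, cells are fixed in 4% paraformaldehyde with Hoechst 33342, washed and imaged.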

T1 sequence (Q15116 25-288): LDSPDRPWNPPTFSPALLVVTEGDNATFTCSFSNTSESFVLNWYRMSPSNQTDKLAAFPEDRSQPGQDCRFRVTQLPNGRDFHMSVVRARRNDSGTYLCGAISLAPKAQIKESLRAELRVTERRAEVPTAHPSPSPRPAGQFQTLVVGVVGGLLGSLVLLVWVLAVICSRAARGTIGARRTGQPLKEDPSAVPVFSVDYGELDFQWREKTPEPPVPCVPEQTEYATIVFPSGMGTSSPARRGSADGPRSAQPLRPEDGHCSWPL

Compound	IC50
CC(C)C[C@H]1NC(=O)[C@H](CCCN)NC(=O)[C@H](C(C)C)NC(=O)[C@H](Cc2ccc(-c3ccccc3)cc2)NC(=O)[C@H](C(C)C)NC(=O)[C@H](Cc2c[nH]c3ccccc23)NC(=O)[C@H](CC(=O)O)NC(=O)[C@H](Cc2ccc(OCC(=O)O)cc2)NC(=O)[C@H](CN)NC(=O)CSC[C@@H](C(=O)N[C@@H](CCCN)C(=O)NCCOCCOCC(=O)NCCCCCCCCCCC(=O)O)NC(=O)[C@H](CO)NC(=O)[C@H](C(C)C)NC(=O)[C@H](CC2CCCCC2)NC(=O)[C@H](C(C)O)NC1=O (stereo partly drawn) [Compound 3192] ({CH2CO}-[Dap]Y(Carboxymethyl)DWV[Bip]V[Orn][dL][Thr(3ξ)][Cha]VSC[Orn][AEEA][Aun]-OH; thioether N-14)	0.0182 µM
CC(C)C[C@@H]1NC(=O)[C@H](Cc2c[nH]c3ccccc23)NC(=O)[C@H](CC(=O)O)NC(=O)[C@H](Cc2ccc(C(=O)O)cc2)NC(=O)[C@H](Cc2ccncc2)NC(=O)CSC[C@@H](C(=O)N[C@@H](CCN)C(=O)NCCOCCOCC(=O)N[C@@H](CCCN)C(=O)NCCCCCCCCCCC(=O)O)NC(=O)[C@H](CO)NC(=O)[C@H](C(C)C)NC(=O)[C@H](CC2CCCCC2)NC(=O)[C@H](CCN)NC(=O)[C@@H](CC(C)C)NC(=O)[C@H](CCCN)NC(=O)[C@H](C(C)C)NC(=O)[C@H](Cc2ccc(-c3ccccc3)cc2)NC1=O [Compound 3195] ({CH2CO}-[4Pal][Phe(4-COOH)]DWL[Bip]V[Orn][dL][Dab][Cha]VSC[Dab][AEEA][Orn][Aun]-OH; thioether N-14)	0.0573 µM
CC(C)C[C@H]1NC(=O)[C@H](CCCN)NC(=O)[C@H](C(C)C)NC(=O)[C@H](Cc2ccc(-c3ccccc3)cc2)NC(=O)[C@H](C(C)C)NC(=O)[C@H](Cc2c[nH]c3ccccc23)NC(=O)[C@H](CC(=O)O)NC(=O)[C@H](Cc2ccc(OCC(=O)O)cc2)NC(=O)[C@H](CCCCNC(=N)N)NC(=O)CSC[C@@H](C(=O)NCC(=O)NCCOCCOCC(=O)N[C@@H](CCCN)C(=O)NCCCCCCCCCCC(=O)O)NC(=O)[C@H](CN)NC(=O)[C@H](C(C)C)NC(=O)[C@H](CC2CCCCC2)NC(=O)[C@H](CCN)NC1=O [Compound 3196] ({CH2CO}-[hArg]Y(Carboxymethyl)DWV[Bip]V[Orn][dL][Dab][Cha]V[Dap]CG[AEEA][Orn][Aun]-OH; thioether N-14)	0.0116 µM
CC(C)C[C@H]1NC(=O)[C@H](CCCN)NC(=O)[C@H](C(C)C)NC(=O)[C@H](Cc2ccc(-c3ccccc3)cc2)NC(=O)[C@H](C(C)C)NC(=O)[C@H](Cc2c[nH]c3ccccc23)NC(=O)[C@H](CC(=O)O)NC(=O)[C@H](Cc2ccc(OCC(=O)O)cc2)NC(=O)[C@H](CCCCNC(=N)N)NC(=O)CSC[C@@H](C(=O)NCC(=O)NCCOCCOCC(=O)N[C@@H](CCCN)C(=O)NCCCCCCCCCCC(=O)O)NC(=O)[C@H](CCCN)NC(=O)[C@H](C(C)C)NC(=O)[C@H](CC2CCCCC2)NC(=O)[C@H](CCN)NC1=O [Compound 3198] ({CH2CO}-[hArg]Y(Carboxymethyl)DWV[Bip]V[Orn][dL][Dab][Cha]V[Orn]CG[AEEA][Orn][Aun]-OH; thioether N-14)	0.004 µM
CC(C)C[C@H]1NC(=O)[C@H](CCCN)NC(=O)[C@H](C(C)C)NC(=O)[C@H](Cc2ccc(-c3ccccc3)cc2)NC(=O)[C@H](C(C)C)NC(=O)[C@H](Cc2c[nH]c3ccccc23)NC(=O)[C@H](CC(=O)O)NC(=O)[C@H](Cc2ccc(OCC(=O)O)cc2)NC(=O)[C@H](CCCCNC(=N)N)NC(=O)CSC[C@@H](C(=O)NCC(=O)NCCOCCOCC(=O)N[C@@H](CCCN)C(=O)NCCCCCCCCCCC(=O)O)NC(=O)[C@H](CCCCN)NC(=O)[C@H](C(C)C)NC(=O)[C@H](CC2CCCCC2)NC(=O)[C@H](CC(N)=O)NC1=O [Compound 3204] ({CH2CO}-[hArg]Y(Carboxymethyl)DWV[Bip]V[Orn][dL]N[Cha]VKCG[AEEA][Orn][Aun]-OH; thioether N-14)	0.0127 µM

Further compounds by falling IC50, results first:

IC50	Compound
0.0284 µM	CC(C)C[C@H]1NC(=O)[C@H](CCCN)NC(=O)[C@H](C(C)C)NC(=O)[C@H](Cc2ccc(-c3ccccc3)cc2)NC(=O)[C@H](C(C)C)NC(=O)[C@H](Cc2c[nH]c3ccccc23)NC(=O)[C@H](CC(=O)O)NC(=O)[C@H](Cc2ccc(OCC(=O)O)cc2)NC(=O)[C@H](CCCCNC(=N)N)NC(=O)CSC[C@@H](C(=O)NCC(=O)NCCOCCOCC(=O)N[C@@H](CCCN)C(=O)NCCCCCCCCCCC(=O)O)NC(=O)[C@H](CCCN)NC(=O)[C@H](C(C)C)NC(=O)[C@H](CC2CCCCC2)NC(=O)[C@H](CC(N)=O)NC1=O [Compound 3203] ({CH2CO}-[hArg]Y(Carboxymethyl)DWV[Bip]V[Orn][dL]N[Cha]V[Orn]CG[AEEA][Orn][Aun]-OH; thioether N-14)
0.0245 µM	CC(C)C[C@H]1NC(=O)[C@H](CCCN)NC(=O)[C@H](C(C)C)NC(=O)[C@H](Cc2ccc(-c3ccccc3)cc2)NC(=O)[C@H](C(C)C)NC(=O)[C@H](Cc2c[nH]c3ccccc23)NC(=O)[C@H](CC(=O)O)NC(=O)[C@H](Cc2ccc(C(=O)O)cc2)NC(=O)[C@H](Cc2ccc(OCC(=O)O)cc2)NC(=O)CSC[C@@H](C(=O)NCC(=O)NCCOCCOCC(=O)N[C@@H](CCCN)C(=O)NCCCCCCCCCCC(=O)O)NC(=O)[C@H](CCCN)NC(=O)[C@H](C(C)C)NC(=O)[C@H](CC2CCCCC2)NC(=O)[C@H](CC(N)=O)NC1=O [Compound 3206] ({CH2CO}-Y(Carboxymethyl)[Phe(4-COOH)]DWV[Bip]V[Orn][dL]N[Cha]V[Orn]CG[AEEA][Orn][Aun]-OH; thioether N-14)
0.0193 µM	CC(C)C[C@H]1NC(=O)[C@H](CCCN)NC(=O)[C@H](C(C)C)NC(=O)[C@H](Cc2ccc(-c3ccccc3)cc2)NC(=O)[C@H](C(C)C)NC(=O)[C@H](Cc2c[nH]c3ccccc23)NC(=O)[C@H](CC(=O)O)NC(=O)[C@H](Cc2ccc(OCC(=O)O)cc2)NC(=O)[C@H](CCCCNC(=N)N)NC(=O)CSC[C@@H](C(=O)NCC(=O)NCCOCCOCC(=O)N[C@@H](CCCN)C(=O)NCCCCCCCCCCC(=O)O)NC(=O)[C@H](CCN)NC(=O)[C@H](C(C)C)NC(=O)[C@H](CC2CCCCC2)NC(=O)[C@H](CC(N)=O)NC1=O [Compound 3202] ({CH2CO}-[hArg]Y(Carboxymethyl)DWV[Bip]V[Orn][dL]N[Cha]V[Dab]CG[AEEA][Orn][Aun]-OH; thioether N-14)
0.0144 µM	CC(C)C[C@H]1NC(=O)[C@H](CCCN)NC(=O)[C@H](C(C)C)NC(=O)[C@H](Cc2ccc(-c3ccccc3)cc2)NC(=O)[C@H](C(C)C)NC(=O)[C@H](Cc2c[nH]c3ccccc23)NC(=O)[C@H](CC(=O)O)NC(=O)[C@H](Cc2ccc(OCC(=O)O)cc2)NC(=O)[C@H](CN)NC(=O)CSC[C@@H](C(=O)NCCOCCOCC(=O)N[C@@H](CCCN)C(=O)NCCCCCCCCCCC(=O)O)NC(=O)[C@H](C(C)O)NC(=O)[C@H](C(C)C)NC(=O)[C@H](CC2CCCCC2)NC(=O)[C@H](CC(N)=O)NC1=O (stereo partly drawn) [Compound 3193] ({CH2CO}-[Dap]Y(Carboxymethyl)DWV[Bip]V[Orn][dL]N[Cha]V[Thr(3ξ)]C[AEEA][Orn][Aun]-OH; thioether N-14)
0.0124 µM	CC(C)C[C@H]1NC(=O)[C@H](CCCN)NC(=O)[C@H](C(C)C)NC(=O)[C@H](Cc2ccc(-c3ccccc3)cc2)NC(=O)[C@H](C(C)C)NC(=O)[C@H](Cc2c[nH]c3ccccc23)NC(=O)[C@H](CC(=O)O)NC(=O)[C@H](Cc2ccc(OCC(=O)O)cc2)NC(=O)[C@H](Cc2ccc(OCC(=O)O)cc2)NC(=O)CSC[C@@H](C(=O)NCC(=O)NCCOCCOCC(=O)N[C@@H](CCCN)C(=O)NCCCCCCCCCCC(=O)O)NC(=O)[C@H](CCCN)NC(=O)[C@H](C(C)C)NC(=O)[C@H](CC2CCCCC2)NC(=O)[C@H](CC(N)=O)NC1=O [Compound 3205] ({CH2CO}-Y(Carboxymethyl)Y(Carboxymethyl)DWV[Bip]V[Orn][dL]N[Cha]V[Orn]CG[AEEA][Orn][Aun]-OH; thioether N-14)
0.0077 µM	CC(C)C[C@H]1NC(=O)[C@H](CCCN)NC(=O)[C@H](C(C)C)NC(=O)[C@H](Cc2ccc(-c3ccccc3)cc2)NC(=O)[C@H](C(C)C)NC(=O)[C@H](Cc2c[nH]c3ccccc23)NC(=O)[C@H](CC(=O)O)NC(=O)[C@H](Cc2ccc(OCC(=O)O)cc2)NC(=O)[C@H](CCCCNC(=N)N)NC(=O)CSC[C@@H](C(=O)NCC(=O)NCCOCCOCC(=O)N[C@@H](CCCN)C(=O)NCCCCCCCCCCC(=O)O)NC(=O)[C@H](CCN)NC(=O)[C@H](C(C)C)NC(=O)[C@H](CC2CCCCC2)NC(=O)[C@H](CCN)NC1=O [Compound 3197] ({CH2CO}-[hArg]Y(Carboxymethyl)DWV[Bip]V[Orn][dL][Dab][Cha]V[Dab]CG[AEEA][Orn][Aun]-OH; thioether N-14)
0.0073 µM	CC(C)C[C@H]1NC(=O)[C@H](CCCN)NC(=O)[C@H](C(C)C)NC(=O)[C@H](Cc2ccc(-c3ccccc3)cc2)NC(=O)[C@H](C(C)C)NC(=O)[C@H](Cc2c[nH]c3ccccc23)NC(=O)[C@H](CC(=O)O)NC(=O)[C@H](Cc2c[nH]cn2)NC(=O)[C@H](CCCCNC(=N)N)NC(=O)CSC[C@@H](C(=O)NCC(=O)NCCOCCOCC(=O)N[C@@H](CCCN)C(=O)NCCCCCCCCCCC(=O)O)NC(=O)[C@H](CO)NC(=O)[C@H](C(C)C)NC(=O)[C@H](CC2CCCCC2)NC(=O)[C@H](CCN)NC1=O [Compound 3200] ({CH2CO}-[hArg]HDWV[Bip]V[Orn][dL][Dab][Cha]VSCG[AEEA][Orn][Aun]-OH; thioether N-14)
0.0055 µM	CC(C)C[C@H]1NC(=O)[C@H](CCCN)NC(=O)[C@H](C(C)C)NC(=O)[C@H](Cc2ccc(-c3ccccc3)cc2)NC(=O)[C@H](C(C)C)NC(=O)[C@H](Cc2c[nH]c3ccccc23)NC(=O)[C@H](CC(=O)O)NC(=O)[C@H](Cc2ccc(OCC(=O)O)cc2)NC(=O)[C@H](CCCCNC(=N)N)NC(=O)CSC[C@@H](C(=O)NCC(=O)NCCOCCOCC(=O)N[C@@H](CCCN)C(=O)NCCCCCCCCCCC(=O)O)NC(=O)[C@H](CCCCN)NC(=O)[C@H](C(C)C)NC(=O)[C@H](CC2CCCCC2)NC(=O)[C@H](CCN)NC1=O [Compound 3199] ({CH2CO}-[hArg]Y(Carboxymethyl)DWV[Bip]V[Orn][dL][Dab][Cha]VKCG[AEEA][Orn][Aun]-OH; thioether N-14)
